Results taken from PMC6736568, “Discovery of Novel Anti-cryptosporidial Activities From Natural Products by in vitro High-Throughput Phenotypic Screening” (Frontiers in Microbiology, 2019).
Counter-ions that a name gives are not always drawn. Like-named read-outs stand apart in the source and are kept apart here.

Experiments:
Cryptosporidium parvum = test: qRT-PCR assay of the growth of C. parvum in vitro in HCT-8 host cells (primary and secondary screening, EC50); type: cell-based; details: Cryptosporidium parvum, HCT-8; for inhibition at 10 µM: primary screening at 10 uM, read-out: Inhibition (%); for inhibition at 3.3 µM: secondary screening at 3.3 uM, read-out: % Inhibition (3.3 uM)
[1] = primary screening at 10 uM, treated vs control

Row | SMILES | inhibition at 10 µM (Cryptosporidium parvum) | Hs18S ΔCT (HCT-8 host cells (Hs18S); human, 41 h, 10 μM) | cytotoxicity at 41 h, 10 µM (in vitro; human) | inhibition at 3.3 µM (Cryptosporidium parvum) | Hs18S ΔCT (HCT-8 host cells (Hs18S); [1]) | cytotoxicity at 10 µM (in vitro) | cytotoxicity at 41 h, 10 µM (in vitro)
1 | C=C[C@H]1C[N@@]2CC[C@H]1C[C@H]2[C@H](O)c1ccnc2ccc(OC)cc12 [QUININE SULFATE] | -15.4% | -0.12 | -8.7% | – | – | – | –
2 | COC(=O)[C@H]1[C@H]2C[C@H]3c4[nH]c5ccccc5c4CCN3C[C@H]2CC[C@@H]1O [RAUWOLSCINE HYDROCHLORIDE] | 22.9% | -0.17 | -12.6% | – | – | – | –
3 | COC(=O)[C@H]1[C@H]2C[C@@H]3c4[nH]c5cc(OC)ccc5c4CCN3C[C@H]2C[C@@H](OC(=O)c2cc(OC)c(OC)c(OC)c2)[C@@H]1OC [RESERPINE] | 87% | 0.50 | 29.4% | 24% | – | – | –
4 | COc1ccc(/C=C/c2cc(O)cc(O)c2)cc1 [RESVERATROL 4'-METHYL ETHER] | -37.3% | – | – | – | -0.37 | -29% | –
5 | Oc1ccc(/C=C/c2cc(O)cc(O)c2)cc1 [RESVERATROL] | 93.5% | – | -9.6% | -24% | -0.13 | – | –
6 | CC1=C(/C=C/C(C)=C/C=C/C(C)=C/CO)C(C)(C)CCC1 [RETINOL] | 6.73% | 0.09 | 6.3% | – | – | – | –
7 | COc1cc(O)c2c(=O)c(OC)c(-c3ccc(OC)c(OC)c3)oc2c1 [RETUSIN] | 33.2% | – | – | – | 0.27 | 17% | –
8 | CNc1ccccc1C(=O)N1CCc2c([nH]c3ccccc23)C1=O [RHETSININE] | -31.2% | 0.51 | 29.6% | – | – | – | –
9 | COC1=C(O)C(=O)c2c(cc3oc(C(C)=O)c(O)c3c2O)C1=O [RHODOCLADONIC ACID] | 1.58% | -0.03 | -2.1% | – | – | – | –
10 | C[C@@H]1O[C@@H](O[C@H]2[C@H](Oc3cc(O)c4c(=O)cc(-c5ccc(O)cc5)oc4c3)O[C@H](CO)[C@@H](O)[C@@H]2O)[C@H](O)[C@H](O)[C@H]1O [RHOIFOLIN] | 54.6% | -0.26 | -20% | – | – | – | –
11 | Cc1cc2nc3c(=O)[nH]c(=O)nc-3n(C[C@H](O)[C@H](O)[C@H](O)CO)c2cc1C [RIBOFLAVIN] | -26.6% | 0.02 | 1.1% | – | – | – | –
12 | COc1ccc(-c2c(O)c3c(OC)c4c(cc3oc2=O)OC(C)(C)C=C4)cc1 [ROBUSTIC ACID] | 9.13% | 0.28 | 17.8% | – | – | – | –
13 | O=C(/C=C/c1ccc(O)c(O)c1)O[C@H](Cc1ccc(O)c(O)c1)C(=O)O [ROSMARINIC ACID] | 37.3% | -0.04 | -3.1% | – | – | – | –
14 | C=C(C)[C@H]1Cc2c(ccc3c2O[C@@H]2COc4cc(OC)c(OC)cc4[C@@H]2C3=O)O1 [ROTENONE] | 74.7% | – | – | 76% | 1.24 | 57.8% | –
15 | COc1cc2c(cc1OC)[C@@H]1C(=O)c3ccc(OC)c(CC=C(C)C)c3O[C@@H]1CO2 [ROTENONIC ACID, METHYL ETHER] | 11.8% | – | – | – | 0.30 | 18.7% | –
16 | CC[C@@]1(O)C[C@H](O)c2c(cc3c(c2O)C(=O)c2c(O)ccc(O)c2C3=O)[C@H]1C(=O)OC [RUTILANTINONE] | 92% | – | – | -3% | -0.54 | -45.2% | –
17 | C=CCc1ccc2c(c1)OCO2 [SAFROLE] | 76.2% | – | – | 8% | -0.44 | -35.3% | –
18 | OCc1ccccc1O[C@@H]1O[C@H](CO)[C@@H](O)[C@H](O)[C@H]1O [SALICIN] | 37.1% | 0.58 | 32.9% | – | – | – | –
19 | OC[C@H]1O[C@@H](OCCc2ccc(O)cc2)[C@H](O)[C@@H](O)[C@@H]1O [SALIDROSIDE] | 14.8% | -0.22 | -16.1% | – | – | – | –

Row | SMILES | inhibition at 10 µM (Cryptosporidium parvum) | Hs18S ΔCT (HCT-8 host cells (Hs18S); human, 41 h, 10 μM) | cytotoxicity at 41 h, 10 µM (in vitro; human) | inhibition at 3.3 µM (Cryptosporidium parvum) | Hs18S ΔCT (HCT-8 host cells (Hs18S); [1]) | cytotoxicity at 10 µM (in vitro) | cytotoxicity at 41 h, 10 µM (in vitro)
20 | COc1cc2c(cc1OC)[C@H](C)NCC2 [SALSOLIDINE] | 47.1% | – | – | – | 0.32 | – | 20%
21 | C[n+]1cc2c3c(ccc2c2ccc4cc5c(cc4c21)OCO5)OCO3 [SANGUINARINE SULFATE] | 18.6% | – | – | – | 0.07 | 4.9% | –
22 | CC1=C2[C@H]3OC(=O)[C@@H](C)[C@@H]3CC[C@@]2(C)C=CC1=O [SANTONIN] | 9.41% | – | – | – | 0.18 | 11.8% | –
23 | COc1ccc2c(c1)OC/C(=C\c1ccc(OC)c(O)c1)C2=O [SAPPANONE A DIMETHYL ETHER] | 11.1% | 0.18 | 11.8% | – | – | – | –
24 | COc1ccc2c(c1)OC/C(=C/c1ccc(OC)c(OC)c1)C2=O [SAPPANONE A TRIMETHYL ETHER] | 3.07% | – | – | – | 0.23 | 14.7% | –
25 | C=C[C@](C)(O)CC[C@@H]1[C@@]2(C)CCCC(C)(C)[C@@H]2CC[C@@]1(C)O [SCLAREOL] | 7.29% | -0.15 | -10.7% | – | – | – | –
26 | CN1[C@@H]2C[C@@H](OC(=O)[C@H](CO)c3ccccc3)C[C@H]1[C@@H]1O[C@@H]12 [SCOPOLAMINE HYDROBROMIDE] | 14% | – | – | – | -0.37 | -29.6% | –
27 | O=C1C=C2C=C[C@@H]3C[C@@]2(O1)[C@H]1CCCCN31 [SECURININE] | 9.24% | – | – | – | 0.05 | 3.6% | –
28 | O=C(O)c1cc(O)c2c(c1)[C@H]([C@H]1c3cc(C(=O)O)cc(O)c3C(=O)c3c(O[C@@H]4O[C@H](CO)[C@@H](O)[C@H](O)[C@H]4O)cccc31)c1cccc(O[C@@H]3O[C@H](CO)[C@@H](O)[C@H](O)[C@H]3O)c1C2=O [SENNOSIDE A] | -4.71% | – | – | – | -0.08 | -6.1% | –
29 | NCCc1c[nH]c2ccc(O)cc12 [SEROTONIN HYDROCHLORIDE] | 10.2% | – | – | – | -0.40 | -31.7% | –
30 | COc1cc(C2Oc3cc([C@H]4Oc5cc(O)cc(O)c5C(=O)[C@@H]4O)ccc3OC2CO)ccc1O (stereo partly shown) [SILIBININ] | 93.5% | -0.02 | -1.4% | -30% | – | – | –
31 | COc1cc(/C=C/C(=O)O)cc(OC)c1OC [SINAPIC ACID METHYL ETHER] | -20.8% | – | – | – | 0.66 | 36.6% | –
32 | COc1ccc(-c2cc(=O)c3c(OC)c(OC)c(OC)cc3o2)cc1OC [SINENSETIN] | 42.8% | 0.39 | 23.6% | – | – | – | –
33 | CO[C@H]1C[C@@H]2CC[C@@H](C)[C@@](O)(O2)C(=O)C(=O)N2CCCC[C@H]2C(=O)O[C@H]([C@H](C)C[C@@H]2CC[C@@H](O)[C@H](OC)C2)CC(=O)[C@H](C)/C=C(\C)[C@@H](O)[C@@H](OC)C(=O)[C@H](C)C[C@H](C)/C=C/C=C/C=C/1C [SIROLIMUS] | 76.6% | 0.94 | 47.9% | 35% | – | – | –
34 | CN[C@@H]1[C@@H](O)[C@@H](O[C@@H]2[C@@H](O)[C@H](O[C@H]3OC(CN)=CC[C@H]3N)[C@@H](N)C[C@H]2N)OC[C@]1(C)O [SISOMICIN SULFATE] | 41.1% | -0.11 | -7.8% | – | – | – | –
35 | CC[C@H](CC[C@@H](C)[C@H]1CC[C@H]2[C@@H]3CC=C4C[C@@H](OC(C)=O)CC[C@]4(C)[C@H]3CC[C@]12C)C(C)C [SITOSTERYL ACETATE] | -3.86% | -0.17 | -12.4% | – | – | – | –
36 | C[C@@H]1CC[C@@]2(NC1)O[C@H]1C[C@H]3[C@@H]4CC=C5C[C@@H](O)CC[C@]5(C)[C@H]4CC[C@]3(C)[C@H]1[C@@H]2C [SOLASODINE] | -28.3% | – | – | – | 0.07 | 4.6% | –
37 | OC[C@@H](O)[C@@H](O)[C@H](O)[C@@H](O)CO [SORBITOL] | -33.8% | -0.18 | -13.2% | – | – | – | –
38 | CC(=O)N[C@@H](CC(=O)N[C@@H](CCC(=O)O)C(=O)O)C(=O)O [SPAGLUMIC ACID] | 31.3% | – | – | – | 0.18 | 11.9% | –
